# Measured values from US7655676B2, “Use of amide derivative of GE 2270 factor A3 for the treatment of acne” (Naicons S.C.A.R.L., priority 2002, dated 2010).
# “And” between values parts separate entries of the source, which are not always exact repeats. Equal entries are not always repeated.
# How the values were obtained:
# [1] = test system: clinical isolates of P. acnes displaying antibiotic-resistant phenotypes; assay: MIC against clinical isolates of P. acnes displaying antibiotic-resistant phenotypes (Table 2); format: cell-based, Propionibacterium acnes; details: for Cumul. %: resistant isolates
# Source text: (§3) MIC50 and MIC90 means minimum inhibitory concentration capable of inhibiting 50% and 90%, respectively, of the strains tested.
# [2] = test system: clinical isolates of P. acnes displaying antibiotic-sensitive phenotypes; assay: MIC against clinical isolates of P. acnes displaying antibiotic-sensitive phenotypes (Table 3); format: cell-based, Propionibacterium acnes; details: Cutibacterium acnes
# Source text: as §3
# Staphylococcus aureus = assay: MIC in vitro, Staphylococcus aureus (Table 1); format: cell-based
# Source text: (§1) In particular, bacterial strains which should not be affected by topical administration of the anti-acne candidate compound are Staphylococcus aureus, Staphylococcus epidermidis, and Streptococcus pyogenes strains.
# (§2) The tests have been carried out in comparison with antibiotic GE 2270 and four representative compounds (B, C, D and E) described in U.S. Pat. No. 5,599,791.
# [3] = test system: Staphylococcus epidermidis; assay: MIC in vitro, Staphylococcus epidermidis (Table 1); format: cell-based; details: ATCC 12228, MH
# Source text: as §1, §2
# Streptococcus pyogenes = assay: MIC in vitro, Streptococcus pyogenes (Table 1); format: cell-based; details: C 203, MH
# Source text: as §1, §2
# Propionibacterium acne = assay: MIC in vitro, Propionibacterium acne strains (Table 1); format: cell-based, Propionibacterium acnes
# Source text: as §1, §2
molecule,measurement,setting,value
CC[C@H]1OC(=O)[C@H](C)[C@@H](O[C@H]2C[C@@](C)(OC)[C@@H](O)[C@H](C)O2)[C@H](C)[C@@H](O[C@@H]2O[C@H](C)C[C@H](N(C)C)[C@H]2O)[C@](C)(O)C[C@@H](C)C(=O)[C@H](C)[C@@H](O)[C@]1(C)O [Erythromycin],MIC50,[1]; Cutibacterium acnes,1020 µg/mL
same,MIC90,[1]; Cutibacterium acnes,2050 µg/mL
same,N° isolates,[1]; resistant isolates with MIC 512 μg/ml,1
same,N° isolates,[1]; resistant isolates with MIC 1024 μg/ml,11
same,N° isolates,[1]; resistant isolates with MIC 2048 μg/ml,3
same,Cumul. %,[1]; cumulative at MIC 512 μg/ml,7%
same,Cumul. %,[1]; cumulative at MIC 1024 μg/ml,80%
same,Cumul. %,[1]; cumulative at MIC 2048 μg/ml,100%
same,MIC90,[2],0.125 µg/mL
GE 2270,MIC,"Staphylococcus aureus; MRSA, MH",<0.125 µg/mL
same,MIC,"Staphylococcus aureus; Smith ATCC 19636, MH + 30% bovine serum",0.25 µg/mL
same,MIC,"Staphylococcus aureus; Smith ATCC 19636, Mueller Hinton (MH)",0.06 µg/mL
same,MIC,[3],<0.125 µg/mL
same,MIC,Streptococcus pyogenes,0.25 µg/mL
same,MIC,"Propionibacterium acne; ATCC 6919, Wilkins Chalgren (WC)",<0.125 µg/mL
same,MIC,"Propionibacterium acne; ATCC 6922, WC",<0.125 µg/mL
same,MIC,"Propionibacterium acne; ATCC 25746, WC",<0.125 µg/mL
same,MIC,"Propionibacterium acne; clinical isolate, WC (one table line per isolate)",<0.125 µg/mL and 0.125 µg/mL
same,MIC,"Propionibacterium acne; clinical isolate, medium not given",<0.125 µg/mL
